The test system of data set [1] is T1, recombinant human 11β-HSD2.
T1 construct: expressed in transfected cells
Nature of the data set: 11β-HSD2 enzyme activity in cell lysates (cortisol to cortisone). It is filed as biochemical. To be noted: 1 μM compound; lysates of HEK-293 cells; 50 nM cortisol. The protocol:
(§1) Human embryonic kidney (HEK-293) cells either stably expressing human 11β-HSD1 and H6PDH (HHH7 clone, [38]) or 11β-HSD2 (AT8 clone, [39]), or transiently expressing human 17β-HSD1 or 17β-HSD2, were cultivated in Dulbecco’s modified Eagle medium (DMEM) containing 4.5 g/L glucose, 10% fetal bovine serum, 100 U/mL penicillin, 0.1 mg/mL streptomycin, 1 × MEM nonessential amino acids, and 10 mM HEPES buffer, pH 7.4. Cells were washed with phosphate-buffered saline (PBS), centrifuged for 4 min at 150 × g, and the cell pellets were snap frozen on dry ice and stored at −80°C until further use.
(§2) Cell lysates were resuspended in TS2 buffer (100 mM NaCl, 1 mM EGTA, 1 mM EDTA, 1 mM MgCl2, 250 mM sucrose, 20 mM Tris-HCl, pH 7.4), followed by sonication at 4°C using a Hielscher UP50H ultrasonic processor (0.3 cycle, 20 amplitude %, 20 impulses; Hielscher Ultrasonics GmbH, Teltow Germany). Cell lysates, reaction mixture, and either vehicle (DMSO) or inhibitor were incubated for 10 min at 37°C in a final volume of 22.2 μL. The solvent concentration was 0.1%. […] 11β-HSD2 activity was measured in the presence of 50 nM cortisol and 500 μM NAD^+. An amount of 50 nCi of radiolabeled tracer substrate was included in the experiments. […] The bands of the corresponding steroids were excised, followed by scintillation counting and calculation of the amount of substrate conversion. Data were obtained from at least three independent measurements. Glycyrrhetinic acid (CTRL 1) was used as positive control for 11β-HSD1 and 11β-HSD2 inhibition, apigenin (CTRL 2) for 17β-HSD1, and compound 22 from Vuorinen et al. [40](CTRL 3) for 17β-HSD2 inhibition.

Data set [2] relates to human skin biopsies. Nature of the data set: Dermal collagen III content in UV exposed ex vivo human skin biopsies (anti-collagen III antibody). The protocol: (§3) Ex vivo skin experiments were performed as contract research by Cutech Biotechnology following the Helsinki declaration and who obtained permission as well as informed consent from the patient (Padova, Italy). Human skin from abdominal plastic surgery of a donor was used. Skin samples were cut in pieces of approximately 8 × 3 mm (diameter × thickness) and cultured in an air-liquid interface in a perforated ring of stainless steel in contact with culture medium (modified Williams’ E medium, Sigma Aldrich) up to day 6. The culture medium was renewed on day 0 and day 3. The test compounds were applied topically and renewed daily. The application was performed as follows: skin biopsies were gently cleaned with a cotton pad and 4 μL of 10 μM or 100 μM test compound were applied on top of each piece and covered with a 6 mm (diameter) delivery membrane (CoTran 9728 Controlled Caliper Ethylene Vinyl Acetate Membrane, 3M, St. Paul, MN, USA).
Skin biopsies were subjected to UV irradiation using a BIO-SUN system (Vilber Lourmat, Eberhardzell, Germany). The system had the following specifications: Lamp wave length: UVB 312 nm (range 280–320 nm) and UVA 365 nm (range 355–375 nm), range of measure (irradiance): accuracy and linearity ± 0.2%, range of programmed energy: 0.1 to 99.99 J/cm^2, intensity: UVA (365 nm) 5 mW/cm^2, UVB (312 nm) 3 mW/cm^2, UVA + UVB: 5.6 + 3.2 mW/cm^2, respectively. The selected UV irradiation intensities were 40% and 80% of the Biological Effective Dose (BED) of 7.5 J/cm^2 UV daylight as described by Del Bino et al.. UV 40% BED = 3.0 J/cm^2 (= 0.1 J/cm^2 UVB + 2.9 J/cm^2 UVA); UV 80% = 6.0 J/cm^2 (= 0.2 J/cm^2 UVB + 5.8 J/cm^2 UVA).
Furthermore, in a preliminary set of experiments, skin biopsies were UV irradiated at 3.0 J/cm^2 and 6.0 J/cm^2 and treated topically with 4 μL of 10 μM or 100 μM of the respective inhibitor, followed by determination of collagen III content using a mouse monoclonal anti-collagen III antibody (Sigma Aldrich).

The subject of another data set is T2, human 17β-HSD1.
T2 construct: expressed in transfected cells; host or cells: HEK-293 (transient)
Nature of the data set: 17β-HSD1 enzyme activity in cell lysates (estrone to estradiol). It is filed as biochemical. The following applies: 1 μM, 200 nM estrone. The protocol: as §1, §2

Data set [3] deals with human skin biopsies. Nature of the data set: Dermal total collagen content in ex vivo human skin biopsies (Picrosirius Red). To be noted: 10 μM or 100 μM inhibitor topically, 6 days; 100 nM cortisone for 5 days. The protocol: as §3
Skin viability was assessed in two skin biopsies after 6 days of treatment using methylthiazolyldiphenyl‐tetrazolium bromide (MTT, Sigma Aldrich) staining. Total dermal collagen in skin sections was semi-quantitatively evaluated by Picrosirius Red histochemical staining (using Picric Acid, Fast Green FCF and Direct Red from Sigma Aldrich) that dyes collagen fibers in purple-red. […] The evaluation was performed by estimating both color intensity and distribution using IMAGE J (NIH) analysis software, allowing to obtain a semi-quantitative evaluation of dermal collagen (collagen score). Two slides of each skin sample were processed by image acquisition and related analysis (i.e. 12 images for each treatment).

The target of data set [4] is T3, recombinant human 11β-HSD1 (Homo sapiens, UniProt P28845).
T3 construct: expressed in transfected cells
In words: 11β-HSD1 enzyme activity in cell lysates (cortisone to cortisol, radiolabeled tracer, TLC). To be noted: for 11β-HSD1 Residual activity, % of control at 100 nM: 100 nM compound; for 11β-HSD1 Residual activity, % of control at 100 nM / 11β-HSD1 Residual activity, % of control at 1 μM: lysates of HEK-293 cells, 200 nM cortisone, mean of three experiments; for 11β-HSD1 Residual activity, % of control at 1 μM: 1 μM compound. The format is biochemical. The protocol:
as §1, §2

In the next data set the test system is T4, human 17β-HSD2.
T4 construct: expressed in transfected cells; host or cells: HEK-293 (transient)
Nature of the data set: 17β-HSD2 enzyme activity in cell lysates (estradiol to estrone). To be noted: 1 μM, 200 nM estradiol. It is filed as biochemical. The protocol:
as §1, §2

Another data set relates to T5, human 11β-HSD1.
T5 construct: expressed in transfected cells
Nature of the data set: 11β-HSD1 activity assay in intact HEK-293 cells co-expressing 11β-HSD1 and H6PDH. The format is cell-based. To be noted: 100 nM and 1 μM compound; intact HHH7 cells; 200 nM cortisone; 30 min. The protocol:
HEK-293 cells co-expressing 11β-HSD1 and H6PDH were seeded in poly-L-lysine coated 96 well-plates (30’000 cells/well) and cultivated in DMEM. At 24 h post-seeding, the cells were washed with charcoal-treated serum-free DMEM (cDMEM) and incubated for 3 h in 100 μL cDMEM. Then, the medium was aspirated and replaced by 30 μL cDMEM. […] The reactions were terminated after 30 min of incubation, followed by analysis of substrate conversion as described above. Data were obtained from at least three independent measurements.

The target of a further data set is T6, endogenous 11β-HSD1 (Homo sapiens, UniProt P28845).
T6 construct: intact primary human keratinocytes expressing endogenous 11β-HSD1; host or cells: primary human epidermal keratinocytes
In words: 11β-HSD1-dependent cortisol formation in intact primary human keratinocytes. The format is cell-based. The following applies: for inhibition of cortisol formation (in words): 1 μM compound, primary human keratinocytes, 1 μM cortisone, 24 h; for IC50: read-out: estimated IC50 of cortisol formation. The protocol: Human epidermal keratinocytes obtained from CELLnTEC advanced Cell Systems (Berne, Switzerland) were maintained in CnT-Prime medium (http://cellntec.com/products/cnt-pr/#datasheet) at 37°C. Cells were subcultivated before reaching confluence. After reaching 90% of confluence, the keratinocytes were washed twice with PBS prior to change to cortisol-free CnT-Prime medium (custom-made by CELLnTEC). […] Compound CAS 1009373-58-3 (CTRL 4, Merck Millipore, Darmstadt, Germany) was used as positive control. After 24 h cell culture supernatants were collected and the amount of cortisol produced was measured on a Mulstiskan Ascent plate reader (MTX Lab Systems, Bradenton, FL) using the Cortisol Parameter Assay Kit (R&D Systems, Minneapolis, MN) following the instructions by the manufacturer. Cell viability was assessed using PrestoBlue® Cell Viability Reagent (Invitrogen, Carlsbad, CA) according to the manufacturer’s instructions.

Where [5] appears, read: 100 μM, 6.0 J/cm^2 UV irradiation.

Each structure is given as a SMILES string. Some results are limits rather than exact numbers.

Usually melting point stands for the temperature of the solid-liquid transition. As a reminder, the IC50 is the concentration that inhibits the measured activity by half.

T6 sequence (P28845 whole entry): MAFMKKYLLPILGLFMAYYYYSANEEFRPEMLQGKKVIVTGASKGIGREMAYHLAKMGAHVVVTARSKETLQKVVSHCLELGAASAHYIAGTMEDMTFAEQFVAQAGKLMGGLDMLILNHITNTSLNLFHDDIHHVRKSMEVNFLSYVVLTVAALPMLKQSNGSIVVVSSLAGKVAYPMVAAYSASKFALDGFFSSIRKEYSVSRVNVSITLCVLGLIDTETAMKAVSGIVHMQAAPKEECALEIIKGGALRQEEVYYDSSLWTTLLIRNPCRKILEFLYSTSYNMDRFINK
T3 sequence (P28845 whole entry): as above

The molecule `Cc1ccc(-c2cccc(C(=O)N3CCCCCC3)c2)cc1F` [3e, Azepan-1-yl(3’-fluoro-4’-methyl-[1,1’-biphenyl]-3-yl)methanone] displayed a melting point of 106 to 108 °C. The “11β-HSD2 Residual activity, % of control at 1 μM” value (from here on “11β-HSD2 Residual activity, %”) in data set [1] is > 90 % of control. Besides, the “collagen III vs UV treated vehicle control (in words)” value with human skin biopsies [2] (100 μM, 3.0 J/cm^2 UV irradiation, p<0.01) is on record as “significantly higher collagen III”. For the same molecule, the “collagen III vs UV treated vehicle control (in words)” value in the data set with human skin biopsies [2] (setting [5]) is given as “significantly higher collagen III”. The “effect on UV-mediated decrease in collagen III levels (in words)” value in the data set with human skin biopsies [2] (topical 10 μM or 100 μM, 3.0 and 6.0 J/cm^2 UV, preliminary) is “prevented the decrease in collagen III levels”. In addition, the “inhibition of 17β-HSD1 (in words)” value in the data set with human 17β-HSD1 was “selective”. Besides, the “effect on cortisone-induced collagen decrease (in words)” value with human skin biopsies [3] is “prevented the cortisone-induced collagen decrease”. Further, in [4], the IC50 turned out to be 34.5 nM; the “11β-HSD1 Residual activity, % of control at 100 nM” value is reported as 19 % of control; the “11β-HSD1 Residual activity, % of control at 1 μM” value was 1 % of control. For the same molecule, the “inhibition of 17β-HSD2 (in words)” value with human 17β-HSD2 was “selective”. The “inhibition of 11β-HSD1 in intact cells (in words)” value (“inhibition of 11β-HSD1” below) in the data set with human 11β-HSD1 is “almost completely inhibited”. Further, on endogenous 11β-HSD1, the “inhibition of cortisol formation (in words)” value is reported as “almost completely inhibited” and the IC50 was ≤ 100 nM.
`Cc1ccc(-c2cccc(C(=O)N3CCC(C)CC3)c2)cn1` [2b, (4-Methylpiperidin-1-yl)(3-(6-methylpyridin-3-yl)phenyl)methanone]: the “11β-HSD2 Residual activity, %” value in [1] is listed as > 90 % of control. Moreover, the “collagen III vs UV treated vehicle control (in words)” value in the data set with human skin biopsies [2] (10 μM, UV irradiated biopsies) is reported as “did not result in significant changes”. Also, in the data set on human skin biopsies [2] (setting [5]), the “collagen III vs UV treated vehicle control (in words)” value is “significantly higher collagen III levels”. The “inhibition of 17β-HSD1 (in words)” value with human 17β-HSD1 was “selective”. The “effect on cortisone-induced collagen decrease (in words)” value in the data set on human skin biopsies [3] is “prevented the cortisone-induced collagen decrease”. Also, in data set [4], the IC50 is 42.2 nM; the “11β-HSD1 Residual activity, % of control at 100 nM” value is on record as 36 % of control; the “11β-HSD1 Residual activity, % of control at 1 μM” value is listed as 5 % of control. In addition, the “inhibition of 17β-HSD2 (in words)” value in the data set on human 17β-HSD2 is reported as “selective”. For the same molecule, in the data set on human 11β-HSD1, the “inhibition of 11β-HSD1” value is on record as “almost completely inhibited”. In addition, at endogenous 11β-HSD1, the “inhibition of cortisol formation (in words)” value is reported as “almost completely inhibited” and the half-maximal inhibitory concentration (IC50) is ≤ 100 nM.
Take `O=C(c1cccc(-c2ccccc2)c1)N1CCCCCC1` [12e, [1,1’-Biphenyl]-3-yl(azepan-1-yl)methanone]: the “11β-HSD2 Residual activity, %” value in data set [1] is reported as > 90 % of control. The “collagen III vs UV treated vehicle control (in words)” value is listed as “did not result in significant changes” in the data set with human skin biopsies [2] (10 μM, UV irradiated biopsies) and “significantly higher collagen III levels” with human skin biopsies [2] (setting [5]). Besides, the “inhibition of 17β-HSD1 (in words)” value with human 17β-HSD1 was “selective”. The “effect on cortisone-induced collagen decrease (in words)” value in the data set on human skin biopsies [3] is given as “prevented the cortisone-induced collagen decrease”. In addition, the IC50 in [4] was 23.4 nM; at endogenous 11β-HSD1, ≤ 100 nM. The “11β-HSD1 Residual activity, % of control at 100 nM” value in [4] was 21 % of control. Besides, in the data set on human 17β-HSD2, the “inhibition of 17β-HSD2 (in words)” value was “selective”. Further, the “inhibition of 11β-HSD1” value in the data set with human 11β-HSD1 is listed as “almost completely inhibited”. In addition, the “inhibition of cortisol formation (in words)” value against endogenous 11β-HSD1 is “almost completely inhibited”.
In the case of `CC1CCN(C(=O)c2cccc(-c3ccc(O)cc3)c2)CC1` [7b, (4’-Hydroxy-[1,1’-biphenyl]-3-yl)(4-methylpiperidin-1-yl)methanone], the “11β-HSD2 Residual activity, %” value in data set [1] is listed as > 90 % of control. Further, in the data set with human 17β-HSD1, the “inhibition of 17β-HSD1 (in words)” value is listed as “selective”. In data set [4], the half-inhibitory concentration (IC50) worked out at 40.4 nM; the “11β-HSD1 Residual activity, % of control at 100 nM” value is listed as 38 % of control; the “11β-HSD1 Residual activity, % of control at 1 μM” value is listed as 5 % of control. Moreover, the “inhibition of 17β-HSD2 (in words)” value with human 17β-HSD2 is “selective”. Besides, the “inhibition of 11β-HSD1” value in the data set with human 11β-HSD1 was “almost completely inhibited”. Besides, at endogenous 11β-HSD1, the “inhibition of cortisol formation (in words)” value is reported as “almost completely inhibited” and the IC50 is ≤ 100 nM.

(Values after PMC5289826 (PLoS ONE, 2017).)
